Experimental data: ChEMBL document CHEMBL4145602, “Cyclic Peptidic Mimetics of Apollo Peptides Targeting Telomeric Repeat Binding Factor 2 (TRF2) and Apollo Interaction” (ACS Med Chem Lett, 2018)
Square brackets hold non-standard residues; d marks the D form. Peptide text beside a SMILES is read from it. Gly(cPent) = N[C@H](C(=O)O)C1CCCC1; tBuAla = CC(C)(C)C[C@H](N)C(=O)O; Cha = N[C@@H](CC1CCCCC1)C(=O)O; Chg = N[C@H](C(=O)O)C1CCCCC1; Nva = CCC[C@H](N)C(=O)O

Biological target: T1, Telomeric repeat-binding factor 2 (Homo sapiens, UniProt Q15554)
T1 sequence (Q15554 whole entry): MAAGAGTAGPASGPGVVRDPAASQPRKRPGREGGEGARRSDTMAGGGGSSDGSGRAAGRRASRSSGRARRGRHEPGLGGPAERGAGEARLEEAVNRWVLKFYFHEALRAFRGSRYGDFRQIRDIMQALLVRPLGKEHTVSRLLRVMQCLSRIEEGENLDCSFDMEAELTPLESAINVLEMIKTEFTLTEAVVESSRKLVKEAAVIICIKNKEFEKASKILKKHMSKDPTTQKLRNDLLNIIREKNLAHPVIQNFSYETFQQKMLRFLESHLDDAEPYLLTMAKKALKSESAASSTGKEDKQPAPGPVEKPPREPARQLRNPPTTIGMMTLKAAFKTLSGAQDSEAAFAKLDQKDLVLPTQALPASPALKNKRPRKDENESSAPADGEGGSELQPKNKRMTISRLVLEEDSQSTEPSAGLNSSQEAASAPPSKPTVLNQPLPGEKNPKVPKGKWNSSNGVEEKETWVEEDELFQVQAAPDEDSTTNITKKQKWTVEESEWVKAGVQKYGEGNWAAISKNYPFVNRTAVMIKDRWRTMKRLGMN
Experiment: Displacement of 5-((2R,6S,9S,12S,15S,18S,21S,24S)-3-((S)-2-((S)-1-amino-3-methyl-1-oxobutan-2-ylcarbamoyl)pyrrolidine-1-carbonyl)-15-(4-aminobutyl)-2-hydroxy-12-(4-hydroxybenzyl)-6,9,18,24-tetraisobutyl-21-methyl-5,8,11,14,17,20,23,26,29-nonaoxo-4,7,10,13,16,19,22,25,28-nonaazatetratriacontan-34-ylcarbamoyl)-2-(6-hydroxy-3-oxo-3H-xanthen-9-yl)benzoic acid from TRF2 TRFH domain (unknown origin) after 30 mins by fluorescence polarization assay

SMILES: CC(=O)N[C@@H](CC(C)C)C(=O)N[C@@H](C)C(=O)N[C@@H](CC(C)C)C(=O)N[C@@H](CCCCN)C(=O)N[C@@H](Cc1ccc(O)cc1)C(=O)N[C@@H](CC(C)C)C(=O)O (Ac-LALKYL-OH)
- Ki: 461 µM

SMILES: CC(C)C[C@H](NC(=O)CN)C(=O)N[C@@H](C)C(=O)N[C@@H](CC(C)C)C(=O)N[C@@H](CCCCN)C(=O)N[C@@H](Cc1ccc(O)cc1)C(=O)N[C@@H](CC(C)C)C(=O)N[C@@H](CC(C)C)C(=O)N[C@H](C(=O)N1CCC[C@H]1C(=O)N[C@H](C(=O)O)C(C)C)[C@@H](C)O (H-GLALKYLLTPV-OH)
- Ki: 0.38 µM

SMILES: CC(C)C[C@@H]1NC(=O)[C@@H](NC(=O)[C@@H](N)Cc2ccc(O)cc2)CCCCCCC[C@@H](C(=O)N(C)C)NC(=O)[C@@H]2CCCN2C(=O)[C@H](C)NC1=O
- Ki: 58.2 µM

SMILES: CC(=O)N[C@@H](CC(C)C)C(=O)N[C@@H](C)C(=O)N[C@@H](CC(C)C)C(=O)N[C@@H](CCCCN)C(=O)N[C@@H](Cc1ccc(O)cc1)C(=O)N[C@@H](CC(C)C)C(=O)N[C@@H](Cc1ccccc1)C(=O)N[C@H](C(=O)N1CCC[C@H]1C(=O)N[C@H](C(N)=O)C(C)C)[C@@H](C)O (Ac-LALKYLFTPV-NH2)
- Ki: 8.5 µM

SMILES: CC(=O)N[C@@H](CC(C)C)C(=O)N[C@@H](C)C(=O)N[C@@H](CC(C)C)C(=O)N[C@@H](CCCCN)C(=O)N[C@@H](Cc1ccc(O)cc1)C(=O)N[C@H]1CCCCCCC[C@@H](C(=O)N(C)C)NC(=O)[C@@H]2CCCN2C(=O)[C@H](C)NC(=O)[C@H](CC(C)C)NC1=O
- Ki: 0.09 µM

SMILES: CC(=O)N[C@@H](CC(C)C)C(=O)N[C@@H](C)C(=O)N[C@@H](CC(C)C)C(=O)N[C@@H](CCCCN)C(=O)N[C@@H](Cc1ccc(O)cc1)C(=O)N[C@@H](CC(C)C)C(=O)N[C@@H](CC(C)C)C(=O)N[C@H](C(=O)N1CCC[C@H]1C(=O)N[C@H](C(=O)O)C(C)C)[C@@H](C)O (Ac-LALKYLLTPV-OH)
- Ki: 0.34 µM

SMILES: CC(=O)N[C@@H](CC(C)C)C(=O)N[C@@H](C)C(=O)N[C@@H](CC(C)C)C(=O)N[C@@H](CCCCN)C(=O)N[C@@H](Cc1ccccc1)C(=O)N[C@@H](CC(C)C)C(=O)N[C@@H](CC(C)C)C(=O)N[C@H](C(=O)N1CCC[C@H]1C(=O)N[C@H](C(N)=O)C(C)C)[C@@H](C)O (Ac-LALKFLLTPV-NH2)
- Ki: 3.4 µM

SMILES: CC(=O)N[C@@H](CC(C)C)C(=O)N[C@@H](C)C(=O)N[C@@H](CC(C)C)C(=O)N[C@@H](CCCCN)C(=O)N[C@@H](Cc1ccc(O)cc1)C(=O)N[C@@H](CC(C)C)C(=O)N[C@@H](CC(C)(C)C)C(=O)N[C@H](C(=O)N1CCC[C@H]1C(=O)N[C@H](C(N)=O)C(C)C)[C@@H](C)O (Ac-LALKYL[tBuAla]TPV-NH2)
- Ki: 6.1 µM

SMILES: CCC[C@H](NC(=O)[C@H](CC(C)C)NC(=O)[C@H](Cc1ccc(O)cc1)NC(=O)[C@H](CCCCN)NC(=O)[C@H](CC(C)C)NC(=O)[C@H](C)NC(=O)[C@H](CC(C)C)NC(C)=O)C(=O)N[C@H](C(=O)N1CCC[C@H]1C(=O)N[C@H](C(N)=O)C(C)C)[C@@H](C)O (Ac-LALKYL[Nva]TPV-NH2)
- Ki: 4.7 µM

SMILES: CC(C)C[C@H](NC(=O)[C@H](Cc1ccc(O)cc1)NC(=O)[C@H](CCCCN)NC(=O)[C@@H](N)CC(C)C)C(=O)N[C@@H](CC(C)C)C(=O)N[C@H](C(=O)N1CCC[C@H]1C(=O)N[C@H](C(=O)O)C(C)C)[C@@H](C)O (H-LKYLLTPV-OH)
- Ki: 26.8 µM

SMILES: CC(C)C[C@@H]1NC(=O)[C@@H](NC(=O)[C@@H](N)Cc2ccccc2)CCCCCCC[C@@H](C(=O)N(C)C)NC(=O)[C@@H]2CCCN2C(=O)[C@H](C)NC1=O
- Ki: 41.4 µM

SMILES: CC(C)C[C@H](NC(=O)[C@H](C)N)C(=O)N[C@@H](CCCCN)C(=O)N[C@@H](Cc1ccc(O)cc1)C(=O)N[C@@H](CC(C)C)C(=O)N[C@@H](CC(C)C)C(=O)N[C@H](C(=O)N1CCC[C@H]1C(=O)N[C@H](C(=O)O)C(C)C)[C@@H](C)O (H-ALKYLLTPV-OH)
- Ki: 22.8 µM

SMILES: CC(=O)N[C@@H](CC(C)C)C(=O)N[C@@H](C)C(=O)N[C@@H](CC(C)C)C(=O)N[C@@H](CCCCN)C(=O)N[C@@H](Cc1ccc(O)cc1)C(=O)N[C@@H](CC(C)C)C(=O)N[C@H](C(=O)N[C@H](C(=O)N1CCC[C@H]1C(=O)N[C@H](C(N)=O)C(C)C)[C@@H](C)O)C1CCCC1 (Ac-LALKYL[Gly(cPent)]TPV-NH2)
- Ki: 0.51 µM

SMILES: CC(=O)N[C@@H](CC(C)C)C(=O)N[C@@H](C)C(=O)N[C@@H](CC(C)C)C(=O)N[C@@H](CCCCN)C(=O)N[C@@H](Cc1ccc(O)cc1)C(=O)N[C@@H](CC(C)C)C(=O)N[C@H](C(=O)N[C@H](C(=O)N1CCC[C@H]1C(=O)N[C@H](C(N)=O)C(C)C)[C@@H](C)O)C(C)C (Ac-LALKYLVTPV-NH2)
- Ki: 61.2 µM

SMILES: CC(C)C[C@@H]1NC(=O)[C@@H](NC(=O)[C@H](Cc2ccccc2)NC(=O)C[C@@H](N)Cc2ccccc2)CCCCCCC[C@@H](C(=O)N(C)C)NC(=O)[C@@H]2CCCN2C(=O)[C@H](C)NC1=O
- Ki: 14.3 µM

SMILES: CC(=O)N[C@@H](CC(C)C)C(=O)N[C@@H](C)C(=O)N[C@@H](CC(C)C)C(=O)N[C@@H](CCCCN)C(=O)N[C@@H](Cc1ccc(O)cc1)C(=O)N[C@@H](CC(C)C)C(=O)N[C@@H](CC(C)C)C(=O)N[C@H](C(=O)O)[C@@H](C)O (Ac-LALKYLLT-OH)
- Ki: 26.3 µM

SMILES: CC(=O)N[C@@H](CC(C)C)C(=O)N[C@@H](C)C(=O)N[C@@H](CC(C)C)C(=O)N[C@@H](CCCCN)C(=O)N[C@@H](Cc1ccc(O)cc1)C(=O)N[C@@H](CC(C)C)C(=O)N[C@@H](CC(C)C)C(=O)N[C@@H](C)C(=O)N1CCC[C@H]1C(=O)N[C@H](C(N)=O)C(C)C (Ac-LALKYLLAPV-NH2)
- Ki: 0.24 µM

SMILES: CC(=O)N[C@@H](CC(C)C)C(=O)N[C@@H](C)C(=O)N[C@@H](CC(C)C)C(=O)N[C@@H](CCCCN)C(=O)N[C@@H](Cc1ccc(O)cc1)C(=O)N[C@@H](CC(C)C)C(=O)N[C@H](C(=O)N[C@H](C(=O)N1CCC[C@H]1C(=O)N[C@H](C(N)=O)C(C)C)[C@@H](C)O)C1CCCCC1 (Ac-LALKYL[Chg]TPV-NH2)
- Ki: 0.21 µM

SMILES: CC(=O)N[C@@H](CC(C)C)C(=O)N[C@@H](C)C(=O)N[C@@H](CC(C)C)C(=O)N[C@@H](CCCCN)C(=O)N[C@@H](Cc1ccc(O)cc1)C(=O)N[C@@H](CC(C)C)C(=O)N[C@@H](CC(C)C)C(=O)N[C@H](C(=O)N1CCC[C@H]1C(=O)O)[C@@H](C)O (Ac-LALKYLLTP-OH)
- Ki: 1.89 µM

SMILES: CC(=O)N[C@@H](CC(C)C)C(=O)N[C@@H](C)C(=O)N[C@@H](CC(C)C)C(=O)N[C@@H](CCCCN)C(=O)N[C@@H](Cc1ccc(O)cc1)C(=O)N[C@@H](CC(C)C)C(=O)N[C@@H](CC1CCCCC1)C(=O)N[C@H](C(=O)N1CCC[C@H]1C(=O)N[C@H](C(N)=O)C(C)C)[C@@H](C)O (Ac-LALKYL[Cha]TPV-NH2)
- Ki: 1.4 µM

SMILES: CC(C)C[C@@H]1NC(=O)[C@@H](NC(=O)[C@H](Cc2ccccc2)NC(=O)CCc2ccccc2)CCCCCCC[C@@H](C(=O)N(C)C)NC(=O)[C@@H]2CCCN2C(=O)[C@H](C)NC1=O
- Ki: 11.2 µM

SMILES: CC(C)C[C@@H]1NC(=O)[C@@H](NC(=O)[C@H](Cc2ccc(O)cc2)NC(=O)[C@@H](N)CCCCN)CCCCCCC[C@@H](C(=O)N(C)C)NC(=O)[C@@H]2CCCN2C(=O)[C@H](C)NC1=O
- Ki: 18.4 µM

SMILES: CC(C)C[C@@H]1NC(=O)[C@@H](NC(=O)[C@@H](N)Cc2ccccc2)CCCCCCCC[C@@H](C(=O)N(C)C)NC(=O)[C@@H]2CCCN2C(=O)[C@H](C)NC1=O
- Ki: 43.2 µM

SMILES: CC(C)C[C@@H]1NC(=O)[C@@H](N)CCCCCCC[C@@H](C(=O)N(C)C)NC(=O)[C@@H]2CCCN2C(=O)[C@H](C)NC1=O
- Ki: 115 µM

SMILES: CC(C)C[C@@H]1NC(=O)[C@@H](NC(=O)[C@@H](N)Cc2ccccc2)CCCCCC[C@@H](C(=O)N(C)C)NC(=O)[C@@H]2CCCN2C(=O)[C@H](C)NC1=O
- Ki: 130 µM

SMILES: CC(C)C[C@H](NC(=O)[C@H](C)NC(=O)[C@@H](N)CC(C)C)C(=O)N[C@@H](CCCCN)C(=O)N[C@@H](Cc1ccc(O)cc1)C(=O)N[C@@H](CC(C)C)C(=O)N[C@@H](CC(C)C)C(=O)N[C@H](C(=O)N1CCC[C@H]1C(=O)N[C@H](C(=O)O)C(C)C)[C@@H](C)O (H-LALKYLLTPV-OH)
- Ki: 2.2 µM

SMILES: CC[C@H](C)[C@H](NC(=O)[C@H](CC(C)C)NC(=O)[C@H](Cc1ccc(O)cc1)NC(=O)[C@H](CCCCN)NC(=O)[C@H](CC(C)C)NC(=O)[C@H](C)NC(=O)[C@H](CC(C)C)NC(C)=O)C(=O)N[C@H](C(=O)N1CCC[C@H]1C(=O)N[C@H](C(N)=O)C(C)C)[C@@H](C)O (Ac-LALKYLITPV-NH2)
- Ki: 11.3 µM

SMILES: CC(=O)N[C@@H](CC(C)C)C(=O)N[C@@H](C)C(=O)N[C@@H](CC(C)C)C(=O)N[C@@H](C)C(=O)N[C@@H](Cc1ccc(O)cc1)C(=O)N[C@@H](CC(C)C)C(=O)N[C@@H](CC(C)C)C(=O)N[C@H](C(=O)N1CCC[C@H]1C(=O)N[C@H](C(N)=O)C(C)C)[C@@H](C)O (Ac-LALAYLLTPV-NH2)
- Ki: 3.2 µM

SMILES: CC(C)C[C@H](NC(=O)[C@@H](N)CC(C)C)C(=O)N[C@H](C(=O)N1CCC[C@H]1C(=O)N[C@H](C(N)=O)C(C)C)[C@@H](C)O (H-LLTPV-NH2)
- Ki: > 500 µM

SMILES: CC(C)C[C@H](NC(=O)[C@H](Cc1ccc(O)cc1)NC(=O)[C@@H](N)CCCCN)C(=O)N[C@@H](CC(C)C)C(=O)N[C@H](C(=O)N1CCC[C@H]1C(=O)N[C@H](C(=O)O)C(C)C)[C@@H](C)O (H-KYLLTPV-OH)
- Ki: 123 µM

SMILES: CC(=O)N[C@@H](CC(C)C)C(=O)N[C@@H](C)C(=O)N[C@@H](CC(C)C)C(=O)N[C@@H](CCCCN)C(=O)N[C@@H](Cc1ccc(O)cc1)C(=O)N[C@@H](CC(C)C)C(=O)N[C@@H](CC(C)C)C(=O)O (Ac-LALKYLL-OH)
- Ki: 98 µM
